Results: patent US20220363662A1, “COMPOUNDS AS LXR AGONISTS” (Integral Biosciences Privated Limited, priority 2021, published 2022)

Tests used:
[1] = target: T1, LXR alpha (Homo sapiens, UniProt Q13133); test: LXR alpha agonist assay (Lanthascreen TR-FRET); assay type: biochemical; settings: LXR alpha-LBD 2.5 nM, read-out: LXR-α EC50
T1 construct: 5 μL of 4×LXR alpha-LBD was added to each well (final concentration 2.5 nM); purchased Thermofisher PV4655
T1 sequence (Q13133 209-447 limits assumed): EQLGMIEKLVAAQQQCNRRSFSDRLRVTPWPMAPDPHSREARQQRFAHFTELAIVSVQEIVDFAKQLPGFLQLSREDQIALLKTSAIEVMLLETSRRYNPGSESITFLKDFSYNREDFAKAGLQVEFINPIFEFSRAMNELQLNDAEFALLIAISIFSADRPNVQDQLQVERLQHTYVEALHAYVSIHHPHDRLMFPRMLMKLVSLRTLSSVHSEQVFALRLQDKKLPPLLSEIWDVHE
Experimental: EC50 values of compounds against LXR alpha were determined at Integral BioSciences (India) using Lanthascreen TR-FRET (Thermofisher, Cat #PV4655). Assay was performed in a 20 μL final volume in a Black 384-well plate (Corning, Cat #4511). Dose response curve for the compounds were prepared in duplicates with starting concentration at 30 μM and a three-fold titration was performed. The reaction buffer consisted of TR-FRET Coregulator Buffer H. To the compound dilution, 5 μL of 4×LXR alpha-LBD was added to each well (final concentration 2.5 nM). An equal volume (5 μL) containing 4×Fl-D22/Tb-anti GST antibody (final concentration 250 nM/10 nM) was added to initiate the enzyme reaction and the reaction was incubated for 60 min at 22° C. after which the plates were read using BioTek Plate reader for TR-FRET every hour up to 4 hours.
Analysis was done using the standard curve by non-linear regression, variable slope inhibitor curve fits (Graph-Pad Prism) and EC50's of compounds were determined wherever possible.

[2] = system: HepG2; test: Cell viability assay (resazurin) in HepG2; assay type: cell-based; settings: Homo sapiens, 96 hr exposure
Outline: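 Cells in 10% FBS medium (DMEM; MEM for U87MG) exposed 96 h at 37 °C to serially diluted compound, then 4 h with resazurin (1 mM in medium). Fluorescence (ex 535/em 590 nm) background-subtracted, normalised to DMSO; IC50 by four-parameter variable-slope fit.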

[3] = target: T2, LXR beta (Homo sapiens, UniProt P55055); test: LXR beta agonist assay (Lanthascreen TR-FRET); assay type: biochemical; settings: LXR beta-LBD 5 nM, read-out: LXR-β EC50
T2 construct: 5 μL of 4×LXR beta-LBD was added to each well (final concentration 5 nM); purchased Thermofisher PV4658
T2 sequence (P55055 222-460 limits assumed): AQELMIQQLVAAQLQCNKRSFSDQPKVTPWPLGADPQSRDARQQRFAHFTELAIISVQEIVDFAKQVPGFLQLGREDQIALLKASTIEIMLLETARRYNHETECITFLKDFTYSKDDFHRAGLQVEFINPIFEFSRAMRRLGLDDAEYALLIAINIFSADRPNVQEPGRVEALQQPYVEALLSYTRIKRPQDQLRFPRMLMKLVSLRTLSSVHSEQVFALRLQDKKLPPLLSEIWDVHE
Outline: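 TR-FRET coactivator recruitment: 5 nM LXR beta-LBD with 100 nM Fl-D22 peptide and 10 nM Tb-anti-GST antibody (final) in Coregulator Buffer G, 60 min at 22° C, read hourly up to 4 hours. Duplicate three-fold titrations from 30 μM; EC50 by variable-slope nonlinear regression.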

[4] = system: ApoE; test: THP-1 Western blotting assay (ApoE); assay type: cell-based; settings: 30 μM; for ApoE normalized with Vehicle treated (DMSO) Control: 18 hour, PMA-differentiated THP-1 cells, densitometry, control = 100; for Fold Difference: ApoE vs DMSO control, THP-1 cells
Experimental: THP-1 cells (2×10^6 cells/well) were differentiated with PMA (10 ng/mL) for 24 following which the cells were treated with different concentrations (30 μM and 10 μM) of compound for 18 hour in cell culture conditions (5% CO2, 37° C.). The cells were lysed using 1×RIPA (Cat #9806; Cell Signaling Technologies) buffer with Protease inhibitor (1×) (Cat #P830, Sigma) and sonicated. Whole cell lysate was collected and protein estimation was done using Bradford Reagent. The samples were subjected to SDS PAGE Electrophoresis and the protein bands were transferred onto PVDF membrane using wet transfer. The membrane was further blocked with 5% non-fat dry milk and incubated with primary antibody (ApoE; 1:1000, Cat #D7I9N, ABCA1; 1:1000, Cat #96292S; Cell Signaling Technologies) and secondary antibody (Anti rabbit IgG 1:2000, Cat #7074S, Cell Signaling Technologies). The membrane was then developed using ECL reagent (Ref. 32106, Thermo Fisher Scientific) in a gel doc system. The expression of protein was quantified by densitometry analysis.

[5] = system: A549; test: Cell viability assay (resazurin) in A549; assay type: cell-based; settings: Homo sapiens, 96 hr exposure
Experimental: (§1) HepG2 (ATCC® HB-8065™), hepatocellular carcinoma, A549 (ATCC® CCL-185™), lung epithelial carcinoma, MCF7 (ATCC® HTB-22™), mammary gland epithelial carcinoma, MDA-MB-231 (ATCC® HTB-26™), TNBC, MiaPaCa-2 (ATCC® CRL-1420™) & Panc-1 (ATCC® CRL-1469™), pancreatic epithelial carcinoma, HCT116 (ATCC® CCL-247™), colon epithelial carcinoma and U87MG (ATCC® HTB-14™), brain epithelial carcinoma cell lines respectively were seeded in the respective medium (DMEM, Cat #10569044 with 10% FBS, Cat #16000044; Gibco for HepG2, A549, MCF7, MDA-MB-231, MiaPaCa-2, Panc-1, HCT116 and MEM, Cat #11095080 with 10% FBS for U87MG). Cells were allowed to grow at 37° C. for 24 hr in 5% CO2 (culture conditions) in a Nuaire incubator (humidified). Serially diluted compounds (100 μl) were added to the culture plate 24 hr later and the cultures were further incubated in culture conditions for 96 hr. Experiment was terminated at the completion of 96 hr exposure to the drug by replacing the medium with 100 μl of 1 mM of resazurin (R7017; Sigma) prepared in culture medium and the plates were further incubated in culture conditions for 4 hr. Fluorescence was then measured using a multimodal plate reader (Biotek Synergy Neo) at an excitation wavelength of 535 nm and emission wavelength of 590 nm to obtain relative fluorescence units. Data analysis was done by subtracting the background fluorescence (only medium blank) value from each reading and then normalizing with the vehicle control (DMSO treated cells) to obtain percent survival/proliferation. Percent survival at different doses was used to calculate IC50 by fitting the curve to the “four-parameter variable slope logistic model” using Prism Graph Pad.

[6] = system: MDA-MB-231; test: Cell viability assay (resazurin) in MDA-MB-231; assay type: cell-based; settings: Homo sapiens, 96 hr exposure, read-out: MDA_MB-231 Cell IC50
Experimental: as §1

[7] = system: HCT116; test: Cell viability assay (resazurin) in HCT116; assay type: cell-based; settings: Homo sapiens, HCT-116; 96 hr exposure
Experimental: as §1

[8] = system: THP1; test: Cell viability assay in THP1; assay type: cell-based; settings: Homo sapiens, THP-1
[9] = system: mouse splenocytes; test: Mouse splenocytes cytotoxicity assay (CTG); assay type: cell-based; settings: Splenocyte, CD3e/CD28 activated Balb/c splenocytes, 72 hr
Experimental: IC50 values to look at cytotoxicity of compounds on CD3e/CD28 induced splenocytes, was determined in mouse splenocytes isolated from Balb/c mice. Mouse splenocytes (2.5×10^5 cells/well/160 μl) were activated with Anti-mouse CD3e (0.5 μg/mL, coated overnight at 4° C.; Cat #14-0032-82, eBiosciences) and then incubated with serial dilutions of compounds (3 fold, 8 point dose response starting at 30 μM) and treated with Anti-mouse CD28 (1 μg/mL soluble; Cat #16-0289-81, eBiosciences). Splenocytes were further incubated under cell culture conditions for 72 hr after which assay was terminated by addition of CTG. Plate was incubated for 15 min at 37° C., 5% CO2 and luminescence was measured.

[10] = system: MCF7; test: Cell viability assay (resazurin) in MCF7; assay type: cell-based; settings: Homo sapiens, 96 hr exposure
Experimental: as §1

| Compound | EC50 [1] | IC50 [2] | EC50 [3] | ApoE normalized with Vehicle treated (DMSO) Control [4] | Fold Difference [4] | IC50 [5] | IC50 [6] | IC50 [7] | IC50 [8] | IC50 [9] | IC50 [10] |
| --- | --- | --- | --- | --- | --- | --- | --- | --- | --- | --- | --- |
| CN(C)C(=O)c1ccc(NC2CN(C3CCN(C(=O)[C@@](O)(c4ccccc4)C(F)(F)F)CC3)C2)cc1Cl (single isomer, unassigned) [Compound 1.10] | 26.1 µM | > 29.6 µM | 0.141 µM | 221.8 | 2.22 | > 30 µM | > 30 µM | – | – | – | – |
| CC(C)[C@@](O)(C(=O)N1CCC(N2CC(Nc3ccc(C(=O)N(C)C)c(Cl)c3)C2)CC1)C(F)(F)F (single isomer, unassigned) [Compound 1.44] | > 30 µM | – | 10.9 µM | 156.5 | 1.57 | > 30 µM | > 30 µM | > 30 µM | > 30 µM | – | – |
| CC(C)[C@](O)(C(=O)N1CCC(N2CC(Nc3ccc(C(=O)N(C)C)c(Cl)c3)C2)CC1)C(F)(F)F (single isomer, unassigned) [Compound 1.45] | > 30 µM | – | 1.21 µM | 132.1 | 1.32 | > 30 µM | > 30 µM | > 30 µM | > 30 µM | – | – |
| O=c1[nH]ccc2cc(N3CCC(C4CCN(S(=O)(=O)c5ccccc5Cl)CC4)CC3)cc(Cl)c12 [Compound 1.16, 8-chloro-6-(1′-((2-chlorophenyl)sulfonyl)-[4,4′-bipiperidin]-1-yl)isoquinolin-1(2H)-one] | – | – | – | – | – | – | – | – | – | 14.9 µM | – |
| CC(C)(C(=O)N1CCC(C2CCN(c3cc(Cl)c4c(=O)[nH]ccc4c3)CC2)CC1)C(F)(F)F [Compound 1.23, 8-chloro-6-(1′-(3,3,3-trifluoro-2,2-dimethylpropanoyl)-4,4′-bipiperidin-1-yl)isoquinolin-1(2H)-one] | – | – | – | – | – | – | – | – | – | 1.5 µM | – |
| CN(C)C(=O)c1ccc(NC2CN(C3CCN(C(=O)C(F)(F)c4ccccc4Cl)CC3)C2)cc1Cl [Compound 1.52, 2-chloro-4-(1-(1-(2-(2-chlorophenyl)-2,2-difluoroacetyl)piperidin-4-yl)azetidin-3-ylamino)-N,N-dimethylbenzamide] | – | > 30 µM | 5.68 µM | – | – | > 30 µM | > 30 µM | > 30 µM | > 30 µM | – | > 30 µM |
| CN(C)C(=O)c1ccc(N[C@H]2CCCN(C3CCN(C(=O)[C@](O)(c4ccccc4)C(F)(F)F)CC3)C2)cc1Cl [Compound 1.53, 2-chloro-N,N-dimethyl-4-((S)-1′-((R)-3,3,3-trifluoro-2-hydroxy-2-phenylpropanoyl)-1,4′-bipiperidin-3-ylamino)benzamide] | – | > 30 µM | 16.9 µM | – | – | > 30 µM | > 30 µM | > 30 µM | > 30 µM | – | > 30 µM |
| CC(C)C(O)(C(=O)N1CCC2(CC1)CN(C1CCN(c3ccc(C(=O)N(C)C)c(Cl)c3)CC1)C2)C(F)(F)F (stereo not drawn) [Compound 1.54, 2-chloro-4-(4-(7-(2-hydroxy-3-methyl-2-(trifluoromethyl)butanoyl)-2,7-diazaspiro[3.5]nonan-2-yl)piperidin-1-yl)-N,N-dimethylbenzamide] | – | > 30 µM | > 30 µM | – | – | > 30 µM | > 30 µM | > 30 µM | > 30 µM | – | > 30 µM |
| CN(C)C(=O)c1ccc(N2CCC(N3CC4(CN(C(=O)[C@](O)(c5ccccc5)C(F)(F)F)C4)C3)CC2)cc1Cl [Compound 1.55, 2-chloro-N,N-dimethyl-4-(4-(6-((R)-3,3,3-trifluoro-2-hydroxy-2-phenylpropanoyl)-2,6-diazaspiro[3.3]heptan-2-yl)piperidin-1-yl)benzamide] | – | > 30 µM | 16.3 µM | – | – | > 30 µM | > 30 µM | > 30 µM | > 30 µM | – | > 30 µM |
| CN(C)C(=O)c1ccc(N[C@@H]2CCN(C3CCN(C(=O)[C@](O)(c4ccccc4)C(F)(F)F)CC3)C2)cc1Cl [Compound 1.57, 2-chloro-N,N-dimethyl-4-((R)-1-(1-((R)-3,3,3-trifluoro-2-hydroxy-2-phenylpropanoyl)piperidin-4-yl)pyrrolidin-3-ylamino)benzamide] | – | > 30 µM | 2.82 µM | – | – | > 30 µM | > 30 µM | > 30 µM | > 30 µM | – | > 30 µM |
| CC(C)C(O)(C(=O)N1CCC(N2CC[C@@H](Nc3ccc(C(=O)N(C)C)c(Cl)c3)C2)CC1)C(F)(F)F (stereo partly drawn) [Compound 1.58, 2-chloro-4-((3R)-1-(1-(2-hydroxy-3-methyl-2-(trifluoromethyl)butanoyl)piperidin-4-yl)pyrrolidin-3-ylamino)-N,N-dimethylbenzamide] | – | > 30 µM | – | – | – | > 30 µM | > 30 µM | > 30 µM | > 30 µM | – | > 30 µM |
